Measurements: patent US9980943B2, “Methods of treating muscular dystrophy” (BOARD OF REGENTS OF THE NEVADA SYSTEM OF HIGHER EDUCATION, …, priority 2013, dated 2018)

Legend:
Type in all cases: cell-based, mouse
[1] = system: α7 integrin (LacZ reporter in α7βgal+/− myoblasts); assay: Myoblast α7+/LacZ integrin FDG assay (Burkin assay in myoblasts, 96-well); conditions: 96-well; for Burkin Assay in Myoblasts, value relative to DMSO: SU9516 analogs, N=3-6; for Burkin Assay in Myoblasts, signal relative to DMSO: α7+/LacZ myoblasts
[2] = system: α7 integrin (LacZ reporter in α7+/LacZ myotubes); assay: Myotube α7 integrin FDG assay (Burkin assay in myotubes, 96-well); conditions: for Burkin Assay in Myotubes, value relative to DMSO: SU9516 analogs, 96-well, N=3-6
[3] = system: β-galactosidase in CMV-LacZ C2C12 myoblasts; assay: CMV-LacZ secondary screen in C2C12 myoblasts (β-Gal stabilizing assay); conditions: for CMV-LACZ in Myoblasts, value relative to DMSO: SU9516 analogs, C2C12 CMV-LacZ, N=2; for CMV-LACZ in Myoblasts (β-galactosidase activity relative to DMSO): CMV-LacZ C2C12 myoblasts
In short: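 β-Gal level was the read-out, measured in a clonal C2C12 line expressing LacZ from a CMV promoter. Dose-response curves used six concentrations, 0.5 μM up to 40 μM, with duplicate points.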

[4] = system: β-galactosidase in CMV-LacZ C2C12 myotubes; assay: CMV-LacZ secondary screen in C2C12 myotubes (β-Gal stabilizing assay); conditions: for CMV-LACZ in Myotubes, value relative to DMSO: SU9516 analogs, C2C12 CMV-LacZ, N=2; for CMV-LACZ in Myotubes, signal relative to DMSO: C2C12 CMV-LacZ myotubes, fold relative to DMSO
In short: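 First, C2C12 myoblasts were transfected with a linearized CMV-LACZ vector and clonal lines selected by FDG β-gal assay. Then cells were exposed to compounds at 0.5, 1, 5, 10, 20 and 40 μM in 96-well format, two replicates each, and β-gal measured.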

For CCN(CC)CCNC(=O)c1c(C)[nH]c(/C=C2\C(=O)Nc3ccc(F)cc32)c1C [NCGC00164631-03], the “Burkin Assay in Myoblasts, value relative to DMSO” value ([1]; 0.5 uM) was 0.8373, the “Burkin Assay in Myoblasts, value relative to DMSO” value ([1]; 1 uM) was 1.032 and the “Burkin Assay in Myoblasts, value relative to DMSO” value ([1]; 5 uM) was 0.3224. For the same compound, the “Burkin Assay in Myoblasts, value relative to DMSO” value ([1]; 10 uM) was 0.01373, the “Burkin Assay in Myoblasts, value relative to DMSO” value ([1]; 20 uM) was 0.01408 and the “Burkin Assay in Myoblasts, value relative to DMSO” value ([1]; 40 uM) was 0.01283. The “Burkin Assay in Myotubes, value relative to DMSO” value ([2]; 0.5 uM) was 0.9512, the “Burkin Assay in Myotubes, value relative to DMSO” value ([2]; 1 uM) was 0.9445 and the “Burkin Assay in Myotubes, value relative to DMSO” value ([2]; 5 uM) was 0.5505. For the same compound, the “Burkin Assay in Myotubes, value relative to DMSO” value ([2]; 10 uM) was 0.1881, the “Burkin Assay in Myotubes, value relative to DMSO” value ([2]; 20 uM) was 0.09031 and the “Burkin Assay in Myotubes, value relative to DMSO” value ([2]; 40 uM) was 0.07758. For the same compound, the “CMV-LACZ in Myoblasts, value relative to DMSO” value ([3]; 0.5 uM) was 0.8658, the “CMV-LACZ in Myoblasts, value relative to DMSO” value ([3]; 5 uM) was 0.7817 and the “CMV-LACZ in Myoblasts, value relative to DMSO” value ([3]; 10 uM) was 0.2763. For the same compound, the “CMV-LACZ in Myoblasts, value relative to DMSO” value ([3]; 20 uM) was 0.1830, the “CMV-LACZ in Myoblasts, value relative to DMSO” value ([3]; 40 uM) was 0.1767 and the “CMV-LACZ in Myotubes, value relative to DMSO” value ([4]; 0.5 uM) was 1.2682. For the same compound, the “CMV-LACZ in Myotubes, value relative to DMSO” value ([4]; 1 uM) was 1.2736, the “CMV-LACZ in Myotubes, value relative to DMSO” value ([4]; 5 uM) was 0.8420 and the “CMV-LACZ in Myotubes, value relative to DMSO” value ([4]; 10 uM) was 0.3964. For the same compound, the “CMV-LACZ in Myotubes, value relative to DMSO” value ([4]; 20 uM) was 0.6690 and the “CMV-LACZ in Myotubes, value relative to DMSO” value ([4]; 40 uM) was 0.7680.

With Br.COc1ccc(C(=O)CN2CCCCC2)cc1 [MLS001004864-01] the “Burkin Assay in Myoblasts, signal relative to DMSO” value ([1]; 0.5 uM) was 1.1396, the “Burkin Assay in Myoblasts, signal relative to DMSO” value ([1]; 1 uM) was 1.193 and the “Burkin Assay in Myoblasts, signal relative to DMSO” value ([1]; 5 uM) was 1.109. The “Burkin Assay in Myoblasts, signal relative to DMSO” value ([1]; 10 uM) was 1.023, the “Burkin Assay in Myoblasts, signal relative to DMSO” value ([1]; 20 uM) was 1.105 and the “Burkin Assay in Myoblasts, signal relative to DMSO” value ([1]; 40 uM) was 0.8883. For the same compound, the “Burkin Assay in Myotubes, α7 integrin LacZ reporter signal relative to DMSO” value ([2]; 0.5 uM) was 0.949, the “Burkin Assay in Myotubes, α7 integrin LacZ reporter signal relative to DMSO” value ([2]; 1 uM) was 1.025 and the “Burkin Assay in Myotubes, α7 integrin LacZ reporter signal relative to DMSO” value ([2]; 5 uM) was 0.9784. For the same compound, the “Burkin Assay in Myotubes, α7 integrin LacZ reporter signal relative to DMSO” value ([2]; 10 uM) was 0.9618, the “Burkin Assay in Myotubes, α7 integrin LacZ reporter signal relative to DMSO” value ([2]; 20 uM) was 0.6075 and the “Burkin Assay in Myotubes, α7 integrin LacZ reporter signal relative to DMSO” value ([2]; 40 uM) was 0.376. For the same compound, the “CMV-LACZ in Myoblasts (β-galactosidase activity relative to DMSO)” value ([3]; 0.5 uM) was 1.2650, the “CMV-LACZ in Myoblasts (β-galactosidase activity relative to DMSO)” value ([3]; 1 uM) was 0.9288 and the “CMV-LACZ in Myoblasts (β-galactosidase activity relative to DMSO)” value ([3]; 5 uM) was 1.2276. The “CMV-LACZ in Myoblasts (β-galactosidase activity relative to DMSO)” value ([3]; 10 uM) was 1.0417, the “CMV-LACZ in Myoblasts (β-galactosidase activity relative to DMSO)” value ([3]; 20 uM) was 1.2930 and the “CMV-LACZ in Myoblasts (β-galactosidase activity relative to DMSO)” value ([3]; 40 uM) was 0.9933. For the same compound, the “CMV-LACZ in Myotubes, signal relative to DMSO” value ([4]; 0.5 uM) was 0.9657, the “CMV-LACZ in Myotubes, signal relative to DMSO” value ([4]; 1 uM) was 0.9610 and the “CMV-LACZ in Myotubes, signal relative to DMSO” value ([4]; 5 uM) was 1.0697. For the same compound, the “CMV-LACZ in Myotubes, signal relative to DMSO” value ([4]; 10 uM) was 0.9501, the “CMV-LACZ in Myotubes, signal relative to DMSO” value ([4]; 20 uM) was 0.9653 and the “CMV-LACZ in Myotubes, signal relative to DMSO” value ([4]; 40 uM) was 0.8884.
